In general, IC50 refers to the midpoint of a concentration-inhibition curve.

Data on one molecule can be found in article PMC3115046, “Analyzing Airway Inflammation with Chemical Biology: Dissection of Acidic Mammalian Chitinase Function with a Selective Drug-like Inhibitor” (Chemistry & Biology, 2011).

Test [1] concerns ventilatory function (penH). In words: Ventilatory function (penH) after methacholine, whole-body plethysmography. In kind it is in vivo, BALB/c mice. The method, then:
All experiments used female BALB/c mice, 6- to 8-weeks-old. Mice were kept in individually ventilated cages and all experiments were conducted under UK Home Office guidelines. Mice were sensitized (day 0) and boosted (day 14) i.p. with 20 μg OVA (Grade V, Sigma) adsorbed to 9% potassium alum. Mice were either challenged on day 28 and 30 with 50 μg OVA or PBS by the intratracheal route or were challenged with 1% OVA or PBS by aerosol for 30 min on day 28 to day 30. […] Necropsies were performed 24 hr after the final airway challenge. […] Briefly, conscious mice were placed in individual chambers for a 10 min acclimatization period. Spontaneous breathing patterns in mice relate to changes in chamber air pressure, which are measured by a transducer attached to the chamber wall. Differences in the rates of pressure change during peak inspiration and peak expiration and the timing of expiration are used to calculate penH according to the following equation; penH = ((expiratory time/relaxation time) – 1) × (peak expiratory flow (mL/s)/peak inspiratory flow (ml/s)). PenH measurements are not used as a quantitative measurement that relates to airway size and rather reflect changes to ventilation following bronchoconstriction. Baseline measurements of penH were made following an aerosol of PBS. […]

Another test deals with T1, human AMCase (hAMCase) (Homo sapiens, UniProt Q9BZP6).
T1 construct: A fragment corresponding to hAMCase 22-398 (bp 64–1194) was ligated into the pPIC9 vector; made in house; host or cells: Pichia pastoris GS115
In words: Chitinase activity assay with fluorescent 4-MU substrate, hAMCase. It counts as biochemical. The method, then:
A fragment corresponding to hAMCase 22-398 (bp 64–1194) was ligated into the pPIC9 vector (Invitrogen) using the Xho I and Not I restriction sites. The enzyme was subsequently overexpressed as a secreted protein from the Pichia pastoris GS115 strain and purified using a combination of affinity chromatography and size-exclusion chromatography. Pure hAMCase was spin concentrated to 37 mg/ml in 25 mM HEPES (pH 6.8), 250 mM NaCl. The protein was crystallized at 30°C from 75% saturated NaCl, 0.1 M HEPES (pH 7.4) using the hanging drop method. Crystals grew to an approximate size of 200 × 100 × 50 μm. Crystals were cryoprotected in 50% saturated NaCl, 20% glycerol in 0.1 M HEPES (pH 7.4) and subsequently flash frozen in liquid nitrogen. […] Data for hAMCase were collected at ID14-EH1 at the European Synchrotron Radiation Facilities (ESRF) using a cryostream of cold nitrogen (110 K). […]
Chitinase activity of hAMCase, lung homogenates, or AMCase COS-7 cell supernatants (serum-free) were determined using 4-methylumbelliferyl-β-D-N,N′,N″-triacetylchitotrioside and 4-methylumbelliferyl-β-D-N,N′,N″-triacetylchitobioside, as described. […] Liberated 4-methlyumberlliferone was quantified using a microplate fluorometer (excitation 360 nm/emission 440 nm). Ki and IC50 values were determined in the presence of different concentrations of inhibitor. […]

Test [2] has as its system lung tissue gene expression. Nature of the test: Lung mRNA expression by quantitative RT-PCR, OVA model. In kind it is in vivo, BALB/c mice. The method, then:
All experiments used female BALB/c mice, 6- to 8-weeks-old. Mice were kept in individually ventilated cages and all experiments were conducted under UK Home Office guidelines. Mice were sensitized (day 0) and boosted (day 14) i.p. with 20 μg OVA (Grade V, Sigma) adsorbed to 9% potassium alum. Mice were either challenged on day 28 and 30 with 50 μg OVA or PBS by the intratracheal route or were challenged with 1% OVA or PBS by aerosol for 30 min on day 28 to day 30. […] Necropsies were performed 24 hr after the final airway challenge. One part of the left lobe of the lung, removed following BALF, was stored in RNAlater (Ambion) at 4°C for up to 4 weeks. Lung samples were homogenized in RLT lysis buffer using TissueLyser (QIAGEN) and total RNA extracted using RNeasy mini spin columns (QIAGEN). RNA (1 μg) was used for synthesis of cDNA using Moloney murine leukemia virus reverse transcriptase. Relative quantification of genes was carried out by RT-PCR using the Roche Lightcycler, as previously described ([Nair et al., 2005]). PCR amplication was analyzed using 2nd derivative Maximum alogarithm (LightCycler 480 SW 1.5, Roche) and the expression of the gene of interest was normalized to the housekeeping gene, GAPDH. Primer sequences used were as follows: GAPDH-For [NT], Rev [NT]1-For [NT], Rev [NT] Collagen I-For [NT], Rev [NT]-1α-For [NT], Rev […]-12-For [NT], Rev [NT]; and TIMP-1-For [NT], Rev [NT]

Where [3] appears, read: 1 and 5 mg/kg i.p., allergic animals.

T1 sequence (Q9BZP6 22-398): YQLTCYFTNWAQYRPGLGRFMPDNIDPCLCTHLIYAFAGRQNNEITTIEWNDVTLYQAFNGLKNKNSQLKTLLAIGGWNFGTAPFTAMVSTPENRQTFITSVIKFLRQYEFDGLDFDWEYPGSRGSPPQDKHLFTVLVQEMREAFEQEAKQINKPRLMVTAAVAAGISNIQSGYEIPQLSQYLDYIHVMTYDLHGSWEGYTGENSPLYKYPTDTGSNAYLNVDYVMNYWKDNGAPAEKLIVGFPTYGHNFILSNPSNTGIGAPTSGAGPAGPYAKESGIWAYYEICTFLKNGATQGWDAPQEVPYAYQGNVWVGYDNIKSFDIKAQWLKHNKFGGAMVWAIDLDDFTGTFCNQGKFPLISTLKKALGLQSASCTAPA

As for `Cn1cnc2c1c(=O)n(CCCn1c(=O)c3[nH]cnc3n(C)c1=O)c(=O)n2C` [bisdionin F], the “penH in PBS-challenged animals” value in test [1] (5 mg/kg, data not shown) is “no effect”. In test [1] (1 and 5 mg/kg i.p., highest concentration of methacholine), the “penH in allergic mice” value is “significantly reduced”. Moreover, at human AMCase (hAMCase) (4-MU substrate, pH 5.2, 10 min 37°C, read-out: IC50 against hAMCase), the IC50 turned out to be 920 ± 40 nM. For the same molecule, the “selectivity for AMCase over CHIT1” value on human AMCase (hAMCase) (hAMCase vs hCHIT1) is recorded as 20 fold. In test [2] (5 mg/kg i.p., OVA-challenged animals), the “MIP-1α mRNA expression in lung” value was “enhanced”. Also, in test [2] (setting [3]), the “MMP-12 mRNA expression in lung” value is “significantly increased”, the “TIMP-1 mRNA expression in lung” value was “downregulated”, the “Ym1 mRNA expression in lung” value is recorded as “significantly increased” and the “procollagen I mRNA expression in lung” value is “significantly increased”. Further, the “enhancement of the ratio of MMP:TIMP expression” value in test [2] (MMP-12:TIMP-1 mRNA, allergic animals) is 2.5 fold.
